Reference: patent US20210186903A1, “TREATMENT FOR DEMYELINATING DISEASE” (CAMBRIDGE ENTERPRISE LIMITED, priority 2018, published 2021)
Entries after “also recorded” stand apart in the source; their conditions may differ.

How the values were obtained:
[1] = test system: young adult OPCs (2-3 months old); conditions: T3 40 ng/ml, 9cRA 50 nM, miconazole 1 μM, benztropine 1.5 μM, O4, CNPase, MBP markers
Experimental: Adult rats (2-27 months) were decapitated after lethal injection of phenobarbital into the tail vein. The brains were removed quickly and placed into ice-cold isolation medium (Tab. S3, alternatively Hibernate A (Brainbits). The telencephalon and cerebellum were dissected in isolation medium; meninges, and the olfactory bulb were mechanically removed and the brain tissue was mechanically minced into 1 mm3 pieces. The tissue pieces were spun down at 100 g for 1 min at RT and the tissue was washed in HBSS− (no Mg2+ and Ca2+, Gibco). Each half of the brain was mixed with 5 ml of dissociation solution (34 U/ml papain (Worthington), 20 μg/ml DNAse Type IV (Gibco) in isolation medium). The brain tissue was dissociated on a shaker (50 rpm) 494 for 40 min at 35° C. The digestion was stopped by addition of ice cold HBSS−. The tissue was centrifuged (200 g, 3 min, RT), the supernatant completely aspirated and the tissue resuspended in isolation medium supplemented with 2% B27 and 2 mM sodium-pyruvate (trituration solution). The tissue was allowed to sit in this solution for 5 min. To obtain a single cell suspension the tissue suspension was triturated 10 times using first a 5 ml serological pipette and subsequently three fire polished glass pipettes (opening diameter >0.5 mm). […]

aged OPCs [2] = assay: Differentiation assay of cultured aged OPCs; type: cell-based, rat; conditions: for differentiation of aged OPCs: aged OPCs (20-24 months), T3 40 ng/ml, 9cRA 50 nM, miconazole 1 μM, benztropine 1.5 μM
Experimental: Adult rats (2-27 months) were decapitated after lethal injection of phenobarbital into the tail vein. The brains were removed quickly and placed into ice-cold isolation medium (Tab. S3, alternatively Hibernate A (Brainbits). The telencephalon and cerebellum were dissected in isolation medium; meninges, and the olfactory bulb were mechanically removed and the brain tissue was mechanically minced into 1 mm3 pieces. The tissue pieces were spun down at 100 g for 1 min at RT and the tissue was washed in HBSS− (no Mg2+ and Ca2+, Gibco). Each half of the brain was mixed with 5 ml of dissociation solution (34 U/ml papain (Worthington), 20 μg/ml DNAse Type IV (Gibco) in isolation medium). The brain tissue was dissociated on a shaker (50 rpm) 494 for 40 min at 35° C. The digestion was stopped by addition of ice cold HBSS−. The tissue was centrifuged (200 g, 3 min, RT), the supernatant completely aspirated and the tissue resuspended in isolation medium supplemented with 2% B27 and 2 mM sodium-pyruvate (trituration solution). The tissue was allowed to sit in this solution for 5 min. To obtain a single cell suspension the tissue suspension was triturated 10 times using first a 5 ml serological pipette and subsequently three fire polished glass pipettes (opening diameter >0.5 mm). After each trituration step the tissue suspension was allowed to sediment (approximately 1-2 min) and the supernatant (approximately 2 ml), containing the cells, was transferred into a fresh tube. After each round of trituration 2 ml of fresh trituration solution were added. To remove accidentally transferred undigested tissue bits, the collected supernatant was filtered through 70 μm cell strainers into tubes that contained 90% isotonic Percoll (GE Healthcare, 17-0891-01, in 10×PBS pH7.2 (Lifetech). The final volume was topped up with phenol-red free DMEM/F12 with HEPES (Gibco) and mixed to yield a homogenous suspension with a final Percoll concentration of 22.5%. The single cell suspension was separated from remaining debris particles by gradient density centrifugation (800 g, 20 min, RT, without break). The myelin debris and all layers without cells were discarded and the brain cell containing phase (last 2 ml) and cell pellet were resuspended in HBSS+ and combined in a fresh 15 ml tubes and centrifuged (300 g, 5 min, RT). The cell pellet was resuspended in red blood cell lysis buffer (Sigma, R7757) and incubated for 1 min at RT to remove red blood cells. 10 ml of HBSS+ were added to this cell suspension and spun down (300 g, 5 min, RT). The cell pellets were resuspended in 0.5 ml modified Milteny washing buffer (MWB, 2 mM EDTA, 2 mM Na-Pyruvate, 0.5% BSA in PBS, pH 7.3) supplemented with 10 ng/ml human recombinant insulin (Gibco). […]

aged OPCs [3] = assay: Comet assay (DNA damage) of aged OPCs; type: cell-based, rat
Experimental: For comet assays of freshly isolated OPCs approximately 5000 OPCs were resuspended in 100 μl PBS and mixed with 300 μl 1% low melting point agarose (37° C.). Alternatively, when OPCs were cultured prior to the assay, the cells were detached using TrypLE 1× Select (Gibco) for 8 min at 37° C. The comet assay was then performed as described in reference 33. Briefly, OPCs were centrifuged at 300 g for 5 min. at room temperature and the cell pellet was resuspended with 100 μl PBS and then mixed with 300 μl molten low-melting point agarose pre-incubated at 37° C. The cell-agarose suspension was then applied gently onto polysine slides that were pre-treated with 1% agarose and allowed 590 to solidify at 4° C. The slides were submersed in alkaline cell lysis buffer (0.3M NaOH, 100 mM EDTA, 0.1% (w/v) N592 Lauroylsarcosine (Sigma, 61745), 1.2M NaCl in ddH2O) for 16 hours at 4° C. in the dark. […] Finally, electrophoresed and propidium iodide stained DNA was visualized using a Zeiss Axiovision Fluorescence microscope (Carl Zeiss), and 50-100 nuclei per animal were visually scored according to published protocols^34. Statistical significance was determined comparing respective damage categories between experimental groups by a two-tailed unpaired t-test. […]

aged female SD rats = assay: Remyelination after ethidium bromide lesion of caudal cerebellar peduncle in aged rats; type: in vivo, rat; conditions: for degree of remyelination versus control animals: aged rats fed ad libitum, metformin 300 mg/kg bodyweight in drinking water from 15 months, lesion at 18 months, assessed 50 days later, rank
Experimental: The animals were housed under standard laboratory conditions on a 12 h light/dark cycle with constant access to food and water. […] For metformin treatment 15 months old female SD rats that were fed ad libitum received metformin (Glucophage) in their drinking water (300 mg/kg bodyweight per day). Metformin treatment was interrupted for two days before and three days after surgery and then commenced to the end of the study (21 days after lesion induction). Fluid consumption was continuously monitored to adapt dosages. For studies involving demyelination, female Sprague Dawley rats (Harlan Laboratories) 18 months of age were used. The rats were anesthetized with buprenorphine (0.03 mg/kg, s.c.) 471 and 2.5% isoflurane. Demyelination was induced by stereotaxic injection of 4 μl of 0.01% ethidium bromide (EB) into the caudal cerebellar peduncles (CCPs), as previously described 28. EB was delivered at a rate of 1 μl/min. After EB delivery the injection needle remained in position for additional 4 min. To assess remyelination the rats were transcardially perfused with 4% glutaraldehyde and 0.4 mM CaCl2) in PBS. The cerebellum was cut in to transverse 1 mm thick sections. The tissue was fixed in 2% osmium-tetroxide at 4° C. overnight, dehydrated through a series of washes in ethanol and propylene-oxide and embedded in resin. From the resin blocks 1 μm thick sections were cut and stained with 1% toluidine blue.

aged OPCs [4] = assay: qRT-PCR for OPC genes and Cdkn2a in cultured aged OPCs; type: cell-based, rat; conditions: aged OPCs (≥18 months)
Experimental: After isolation, OPCs were left to recover in OPC medium (60 μg/ml N-Acetyl cysteine (Sigma), 10 μg/ml human recombinant insulin (Gibco), 1 mM sodium pyruvate (Gibco), 50 μg/ml apo-transferrin (Sigma), 16.1 μg/ml putrescine (Sigma), 40 ng/ml sodium selenite (Sigma), 60 ng/ml progesterone (Sigma), 330 μg/ml bovine serum albumin (Sigma)) supplemented with b-FGF and PDGF (30 ng/ml each, Peprotech).
RNA was isolated from freshly purified OPCs or from cultured OPCs according to the Directzol RNA MicroPrep Kit (Zymo Research; R2061). All RNA samples were stored at −80° C. prior to further processing. cDNA was generated using the QuantiTect Reverse Transcription Kit's according to the instructions of the manufacturer (Qiagen; 205310). For RT-qPCR, primers (see Extended Data Tab. 5) were used at a concentration of […]. The efficiency of each primer was greater than […] as determined for each primer pair by serial dilutions of OPC cDNA. cDNA, primers, and the Syber Green Master Mix (Qiagen; 04141) were mixed as instructed by the manufacturer, and RT-qPCR and melting curve analysis were performed on Life Technologies' Quantstudio 6 Flex Real-Time PCR System. Fold changes in gene expression were calculated using the delta delta Ct method in Microsoft Excel. Statistical significance was determined using two-tailed unpaired t-tests assuming equal variances.

CN1[C@@H]2CC[C@H]1C[C@@H](OC(c1ccccc1)c1ccccc1)C2 [benztropine]
differentiation of young OPCs [1]: enhanced differentiation in young
differentiation of aged OPCs (aged OPCs [2]): but not aged OPCs

CN(C)C(=N)NC(=N)N [metformin, N,N-dimethylbiguanide]
DNA damage, comet assay (aged OPCs [3]; aged OPCs (≥18 months), 100 μM metformin during first 5 days of culture): less DNA damage
hallmarks of aging of aged OPCs (aged OPCs [3]; aged OPCs, DNA damage among the hallmarks): ameliorates hallmarks of ageing
degree of remyelination versus control animals (aged female SD rats): enhances remyelination in aged rats
degree of remyelination versus control animals (aged female SD rats; listed as Metformin): significantly higher compared to control animals
degree of remyelination versus ADF animals (aged female SD rats; aged rats, metformin 300 mg/kg in drinking water for three months prior to lesion, compared with alternate day fasting): comparable to animals undergoing ADF
expression of Cdkn2a (senescence marker) (aged OPCs [4]; 100 μM metformin during first 5 days of culture): expressed significantly less Cdkn2a
expression of Pdgfra and Ascl1 (OPC self-renewal genes) (aged OPCs [4]; 100 μM metformin during first 5 days of culture with growth factors): increased their expression of Pdgfra and Ascl1
proportion of MBP expressing oligodendrocytes with highly arborized morphology (aged OPCs [2]; aged OPCs exposed to metformin, in the presence of pro-differentiation factors): significant increase
differentiation of aged OPCs (differentiation potential), agent added before differentiation (aged OPCs [2]; aged OPCs, agent added prior to pro-differentiation compounds / onset of differentiation, Olig2+MBP+ cells): restores the ability of aged OPCs to differentiate; also recorded: enhanced differentiation of aged OPCs

CC1=C(/C=C/C(C)=C\C=C\C(C)=C\C(=O)O)C(C)(C)CCC1 [9-cis-retinoic acid]
differentiation of young OPCs [1]: enhanced differentiation in young
differentiation of aged OPCs (aged OPCs [2]): but not aged OPCs
